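How tested: cells in 96-well plates exposed to compound for 48 hours at five concentrations. TGI is the concentration that stops growth completely.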
Experiments:
Experiment in all cases: NCI anticancer screen, dose series, 48 h
DU-145 prostate = system: DU-145 prostate
HCC-2998 colon = system: HCC-2998 colon
MALME-3M melanoma = system: MALME-3M melanoma
MDA-N = system: MDA-N
NCI/ADR-RES ovarian = system: NCI/ADR-RES ovarian
OVCAR-3 ovarian = system: OVCAR-3 ovarian
SK-MEL-2 melanoma = system: SK-MEL-2 melanoma
SNB-19 CNS = system: SNB-19 CNS
SNB-75 CNS = system: SNB-75 CNS
T-47D breast = system: T-47D breast

SMILES | TGI (DU-145 prostate) [µM] | TGI (HCC-2998 colon) [µM] | TGI (MALME-3M melanoma) [µM] | TGI (MDA-N) [µM] | TGI (NCI/ADR-RES ovarian) [µM] | TGI (OVCAR-3 ovarian) [µM] | TGI (SK-MEL-2 melanoma) [µM] | TGI (SNB-19 CNS) [µM] | TGI (SNB-75 CNS) [µM] | TGI (T-47D breast) [µM]
CN(C)CCCNC(=O)CNC(=O)c1cc(NC(=O)c2cc(NC(=O)c3cc(NC(=O)CCNC(=O)c4cc(NC(=O)c5cc(NC(=O)c6nccn6C)cn5C)cn4C)cn3C)cn2C)cn1C | > 100 | > 100 | > 100 | > 100 | > 100 | > 100 | > 100 | > 100 | > 100 | > 100
O=C1NC(N/N=C/C(O)C(O)C(O)C(O)CO)=N/C1=C\c1cccs1 (stereo not given) | > 100 | > 100 | > 100 | > 100 | > 100 | > 100 | > 100 | > 100 | > 100 | > 100
Cc1ccnc2c1c(=O)c1ccccc1n2C | > 100 | > 100 | > 100 | > 100 | > 100 | > 100 | > 100 | > 100 | 56.3 | > 100
C#CCSc1cnc2ccccc2c1Sc1c[nH]c2ccccc2c1=O | > 100 | 38.2 | > 100 | > 100 | > 100 | > 100 | 53.5 | > 100 | 83.3 | 42.5
C/C=C/OC1C(C2COC(C)(C)O2)OC2OC(C)(C)OC21 (stereo not given) | > 100 | > 100 | > 100 | > 100 | > 100 | > 100 | > 100 | > 100 | > 100 | > 100
CC(C)(N=NC(C)(C)C1=NCCN1)C1=NCCN1 | > 100 | > 100 | > 100 | > 100 | > 100 | > 100 | > 100 | > 100 | > 100 | > 100
COc1ccc(C2c3cc4c(cc3OC(N3CCOCC3)C2C)OCO4)c(OC)c1 (stereo not given) | 54.7 | 14.5 | 36.6 | 5.25 | 9.68 | 13.9 | 21.7 | 28.9 | 23.4 | > 54.8
COc1ccc(CN=C2Nc3ccncc3S(=O)(=O)N2c2ccccc2)cc1 | > 100 | 54.9 | > 100 | > 100 | > 100 | > 100 | > 100 | > 100 | > 100 | > 100
CC1C=C(NCC2(CO)CCC2)NC(N)=N1 (stereo not given) | > 100 | > 100 | > 100 | > 100 | > 100 | > 100 | > 100 | > 100 | > 100 | > 100
O/N=C1\CC2(N3CCOCC3)CCC1(Cc1ccccc1)CC2 | > 100 | > 100 | > 100 | > 100 | > 100 | > 100 | 85 | 63.5 | 34.9 | > 100
O=C(O)c1cc2c(cc1S(=O)(=O)O)C1C(C3C2C2(Cl)C(Cl)=C(Cl)C3(Cl)C2(Cl)Cl)C2(Cl)C(Cl)=C(Cl)C1(Cl)C2(Cl)Cl (stereo not given) | > 100 | 51.2 | > 100 | > 100 | > 100 | > 100 | 73.4 | > 100 | > 100 | > 100
CCOC(=O)/C=C/[C@H](O[Si](c1ccccc1)(c1ccccc1)c1ccccc1)C(C)(C)C | > 31.6 | > 31.6 | > 31.6 | > 31.6 | > 31.6 | > 31.6 | > 31.6 | > 31.6 | > 31.6 | > 31.6
C=CC1(CBr)CCC(C(C)(C)Br)O1 (stereo not given) | 25.7 | 30.5 | 27.8 | 22.7 | 30.7 | 22.6 | 28.1 | 30.1 | 20.4 | 15.5
O=C(c1ccco1)N1CCN(C(=O)c2ccco2)C1=S | 7.99 | 25.7 | 23 | 22.6 | > 79.7 | 11.6 | 31 | > 79.5 | 26.2 | 27.8
CC(=O)NC1CCC(NC(=O)OC(C)(C)C)C(NC(=O)OC(C)(C)C)C1 (stereo not given) | > 100 | > 100 | > 100 | > 100 | > 100 | > 100 | > 100 | > 100 | > 100 | > 100
CCCCCC(/C=N/NC(N)=S)C(O)(C(F)(F)F)C(F)(F)F (stereo not given) | > 10 | > 10 | > 10 | > 10 | > 10 | > 10 | > 10 | > 10 | > 10 | > 10

SMILES | TGI (DU-145 prostate) [µM] | TGI (HCC-2998 colon) [µM] | TGI (MALME-3M melanoma) [µM] | TGI (MDA-N) [µM] | TGI (NCI/ADR-RES ovarian) [µM] | TGI (OVCAR-3 ovarian) [µM] | TGI (SK-MEL-2 melanoma) [µM] | TGI (SNB-19 CNS) [µM] | TGI (SNB-75 CNS) [µM] | TGI (T-47D breast) [µM]
C=CCOc1ccc(C2c3c([nH][nH]c3=O)CC(C)(O)C2C(=O)OC)cc1OC (stereo not given) | > 100 | > 100 | > 100 | > 100 | > 100 | > 100 | > 100 | > 100 | > 100 | > 100
c1ccc(-c2cc(-c3cc(-c4ccccc4)n[nH]3)[nH]n2)cc1 | > 100 | > 100 | > 100 | > 100 | > 100 | > 100 | > 100 | > 100 | > 100 | > 100
COc1cc(/C=C/C(=O)O)ccc1O | > 100 | > 100 | > 100 | > 100 | > 100 | > 100 | > 100 | > 100 | > 100 | > 100
CCOC(=O)CC[C@@H](NC(=O)c1ccc(NCc2ccc3nc(OC)c(OC)nc3c2)cc1)C(=O)OCC | > 100 | > 100 | 39 | > 85.2 | > 100 | 38.3 | 40.6 | > 100 | 24.9 | 58.3
CC(=O)O/C(=C(/C#N)C(=O)O)C1C(C(=O)O)C(c2ccccc2[N+](=O)[O-])C=C(c2ccco2)N1c1ccncc1 (stereo not given) | 21.4 | 9.45 | 23 | 7.26 | 36.6 | 8.07 | 22.2 | 24.2 | 20.1 | 18.4
CCOC(=O)C1(Cc2ccccc2)CCN(C(=O)c2ccccc2)C2C1C2(Cl)Cl (stereo not given) | > 100 | 30.5 | 51.5 | 39.6 | 69 | 47.1 | 31.1 | > 100 | 62.6 | 62.4
COc1ncc(C#CC(=O)c2ccccc2OC)c(OC)n1 | 12.3 | 13 | 3.36 | 3.41 | 4.78 | 8.27 | 6.4 | 29.3 | 10.2 | 22.9
OCCCN(CCc1ccc(Cl)c(Cl)c1)CCN1CCCC1 | > 100 | 32.9 | 41.5 | 42.7 | > 100 | > 100 | 36.6 | > 100 | > 100 | > 100
O=C(COC(=O)c1ccccc1)c1ccc(Br)cc1 | 64.6 | 26.9 | 29.4 | 16.4 | 61.9 | > 100 | 28.2 | 30.5 | 29.9 | 62.6
CCOC(=O)c1cc2cc(CSc3ccccc3)ccc2oc1=O | > 100 | > 100 | > 100 | > 100 | > 100 | > 100 | > 100 | > 100 | > 100 | > 100
Cn1c2c(c3ccccc31)CC(=O)N1CCCCC1C21OCCO1 (stereo not given) | > 100 | > 100 | > 100 | > 100 | > 100 | > 100 | > 100 | > 100 | > 100 | > 100
O=C(/C(Cl)=C/c1ccccc1)c1ccccc1 | 29.8 | 12.9 | 4.39 | 4.52 | 19.4 | 8.36 | 28.6 | 29.3 | 26.9 | 27.1
C/C=C/[C@@H]1O[C@H](CC#C[Si](C)(C)C)[C@@]2(C=O)C(C)=CC[C@H](C(C)C)[C@@H]12 | 51.8 | 36.5 | 37.2 | 43.9 | 71 | 42.4 | 33.5 | 62.3 | 54.1 | > 100
COC(=O)c1ccc(NCC2=CC(=O)c3ccccc3C2=O)cc1 | 31.3 | > 63.3 | 19.9 | 26.6 | 90.6 | 26.7 | 42.2 | 99.7 | 46.8 | 32.5
CC1(C)OC2CN(C(=O)OCc3ccccc3)C(CO)C2O1 (stereo not given) | > 100 | > 100 | > 100 | > 100 | > 100 | > 100 | > 100 | > 100 | > 100 | > 100

Source: PubChem BioAssay (NCI)
